Results on 82 compounds are retold here after the OPERA property sets (Mansouri et al. 2018).

Conditions in one series: not given
`CCC(Cl)(Cl)[N+](=O)[O-]` showed a boiling point of 145 °C.

On to `NC(=O)c1cccc(N)c1`, for which the melting point is 116 °C.

Regarding `COC(=O)c1cccnc1`, the boiling point turned out to be 204 °C and the melting point was found to be 42.5 °C.

Consider `Oc1ccc2c(c1)[C@@]13CCCC[C@H]1[C@@H](C2)N(CC1CC1)CC3`, for which the melting point was 188 °C.

As for `Cc1nnc(NS(=O)(=O)c2ccc(N)cc2)s1`, the melting point came out at 208 °C.

The compound `Clc1ccc(-c2c(Cl)ccc(Cl)c2Cl)cc1` displayed a log10 Henry constant (atm·m³/mol) of -3.85 and a log10 Koa of 8.41.

For the compound `CC=NNc1ccccc1`, the melting point was 99.5 °C.

With `Sc1nc2ccccc2s1`, the log10 Koc (L/kg) turned out to be 2.25, the melting point amounted to 181 °C and the ready biodegradability result was “readily biodegradable”.

`CC(=O)Oc1ccccc1C(=O)OC(=O)c1ccccc1OC(C)=O` showed a melting point of 83 °C.

In turn, `CCCCOC(=O)C(Cl)Cl` showed a boiling point of 194 °C.

With `CC[C@H](C(N)=O)[C@@H](C)CC`, the melting point turned out to be 114 °C.

The compound `O=S(=O)(Cl)C(F)(F)F` gave a boiling point of 30.5 °C.

`NC(=S)NS(=O)(=O)c1ccc(N)cc1`: the melting point was found to be 182 °C.

`NCCCCCCNCCCCCCN` came in with a melting point of 33 °C.

The compound `Cc1ccc(OP(=O)(Oc2ccc(C)c(C)c2)Oc2ccc(C)c(C)c2)cc1C` showed a melting point of 72 °C.

Take `CCCCCCCF`: the boiling point was found to be 118 °C, the log10 vapour pressure (mmHg) came out at 1.26 and the melting point is -73 °C.

Consider `Nc1ccc2ccccc2c1`, for which the boiling point stood at 300 °C, the log10 Henry constant (atm·m³/mol) was -7.09, the log10 vapour pressure (mmHg) is -3.59 and the melting point turned out to be 113 °C. The ready biodegradability result is listed as “readily biodegradable”.

On to `Cc1cc(C)n(C)n1`, for which the boiling point came to 170 °C.

In the case of `CCCCNc1ccccc1`, the boiling point came out at 244 °C and the melting point was -14.4 °C.

`c1ccc(-c2cccnc2)nc1` had a boiling point of 296 °C.

The compound `COc1ccc(C(=O)OC(=O)c2ccc(OC)cc2)cc1` registered a melting point of 94.5 °C.

As for `CCCCCC`, the log10 Koa amounted to 2.4, the log10 biodegradation half-life (days) stood at 0.954, the log10 vapour pressure (mmHg) was 2.18 and the ready biodegradability entry was “readily biodegradable”.

For `Brc1ccccc1Br`, the boiling point came to 225 °C and the melting point was 7.1 °C.

The compound `NC(=O)CN1CCCC1=O` came in with a melting point of 152 °C.

`CCc1ccccc1C` returned a boiling point of 165 °C, a log10 biodegradation half-life (days) of 0.602 and a log10 vapour pressure (mmHg) of 0.417.

Take `CCC(CC)CCC(C)C`: the boiling point was 160 °C.

Regarding `Nc1cccc2c1C(=O)c1ccccc1C2=O`, the log10 vapour pressure (mmHg) was -8.3, the melting point was 254 °C and the ready biodegradability entry is on record as “not readily biodegradable”.

Compound `CC1=CC(=O)NS(=O)(=O)O1` showed a melting point of 123 °C.

`C=CCN(CC=C)C(=O)COC(=O)c1ccccc1`: the melting point came to 42.5 °C.

In turn, `CCCCCCCCCCCC[N+](CCO)(CCO)Cc1ccccc1.[Cl-]` had a melting point of 108 °C.

Turning to `CCC(=O)NC`, the boiling point was 148 °C, the log10 vapour pressure (mmHg) came out at 0.0603 and the melting point was -30.9 °C.

In the case of `CC(C)(C)C(=O)C=Cc1ccccc1`, the melting point is 43 °C.

In turn, `CCCCc1c(C)nc(N(C)C)nc1O` showed a log10 Koc (L/kg) of 1.95, a log10 vapour pressure (mmHg) of -4.96 and a melting point of 102 °C.

`C[C@@H]1C[C@@]2(C)[C@@H](CC[C@@H]3[C@@H]2CC[C@]2(C)[C@@H](O)CC[C@@H]32)CC1=O` had a melting point of 151 °C.

`Oc1cccc(O)c1`: the boiling point came to 280 °C, the log10 Koc (L/kg) was 0.98, the log10 vapour pressure (mmHg) was -3.31 and the melting point was 111 °C. In addition, the ready biodegradability result was “readily biodegradable”.

As for `CCOC(=O)C(C)Oc1ccc(Oc2cnc3cc(Cl)ccc3n2)cc1` (centres undefined), the log10 Koc (L/kg) turned out to be 2.71, the log10 vapour pressure (mmHg) was -8.19 and the melting point is 84.2 °C.

Compound `O=S1(=O)CCOCC1` displayed a melting point of 132 °C.

Consider `O=C(O)CC(O)C(=O)O` (centres undefined), for which the log10 vapour pressure (mmHg) was -7.48, the melting point turned out to be 131 °C and the ready biodegradability result was “readily biodegradable”.

Turning to `CC(C)OC(=O)c1ccccc1`, the boiling point came to 216 °C.

The compound `CC(O)COC(C)C` (centres undefined) registered a boiling point of 138 °C.

For the compound `Cc1c[nH]c(=O)[nH]c1=O`, the melting point was 316 °C.

For `Cc1ccc(/N=N/c2c(O)ccc3ccccc23)c(C)c1`, the melting point stood at 166 °C.

`Cc1nc(C)c(Cl)c(O)c1Cl` returned a melting point of 320 °C.

Consider `C[Si](C)(C)C#C[Si](C)(C)C`, for which the boiling point is 134 °C and the melting point turned out to be 26 °C.

Take `CC1(C)CCc2ccccc21`: the boiling point stood at 191 °C.

Take `CCCCC1CCC(O)C(OC)C1` (centres undefined): the ready biodegradability result is “readily biodegradable”.

For `CN(C)C(=S)N(C)C`, the boiling point is 245 °C and the melting point amounted to 79.3 °C.

`C#CC=CC=C` showed a boiling point of 83.5 °C and a melting point of -81 °C.

`O[C@@H]1CCc2ccccc2C1` had a melting point of 15.5 °C.

In the case of `Cc1c(O)ccc(O)c1C`, the melting point came to 224 °C.

For `Cc1ccc(N=c2sccn2C)c(C)c1`, the log10 vapour pressure (mmHg) is -4.74 and the melting point was found to be 44 °C.

As to `CNC(C)CC1CCCCC1` (centres undefined), the boiling point was found to be 205 °C.

In turn, `CC(C)C1CC=C(C=O)CC1` (centres undefined) came in with a boiling point of 223 °C.

Turning to `O=C(Cn1ccnc1[N+](=O)[O-])NCc1ccccc1`, the melting point turned out to be 189 °C.

`FCCBr` yielded a boiling point of 71.5 °C.

As for `c1ccc2c(c1)cnc1ccccc12`, the boiling point stood at 349 °C, the log10 vapour pressure (mmHg) is -4.68 and the melting point was 107 °C.

`CN1CCN(C(=O)OC2C3=C(SCCS3)C(=O)N2c2ccc3ccc(Cl)nc3n2)CC1` (centres undefined): the melting point worked out at 280 °C.

In the case of `Nc1nc[nH]n1`, the log10 Koc (L/kg) turned out to be 1.25, the log10 vapour pressure (mmHg) is -6.36, the melting point turned out to be 159 °C and the ready biodegradability result is reported as “not readily biodegradable”.

`CC(C)COC(=O)Cc1ccccc1` displayed a boiling point of 247 °C.

Compound `C=C(C)[C@H]1Cc2c(ccc3c2O[C@@H]2COc4cc(OC)c(OC)cc4[C@@H]2C3=O)O1` gave a log10 Koc (L/kg) of 4 and a melting point of 176 °C.

Take `CCN(CC)c1ccc(C=NN(c2ccccc2)c2ccccc2)cc1`: the melting point worked out at 94.5 °C.

`O=C(OCCO)c1ccccc1` had a melting point of 45 °C.

The compound `CC(C)OC(=O)C=CC(=O)OC(C)C` came in with a boiling point of 280 °C and a melting point of 2.1 °C.

On to `CC(=O)C(Cl)(Cl)Cl`, for which the boiling point amounted to 149 °C.

In turn, `NCCCNCCCCNCCCN` returned a melting point of 29 °C.

`CC(C)=CCCl` returned a boiling point of 109 °C.

Take `FC(F)C(F)(F)Cl`: the boiling point was -10 °C and the melting point was -117 °C.

For `O=C1OC(=O)c2cccc3cccc1c23`, the melting point was 270 °C.

On to `CCCC(=O)Nc1ccccc1`, for which the log10 Koc (L/kg) stood at 1.71 and the melting point is 97 °C.

`CCC(=O)Oc1ccc(/C(CC)=C(\CC)c2ccc(OC(=O)CC)cc2)cc1` yielded a melting point of 104 °C.

Turning to `CCCCCCCCCCCCCCOC(=O)CCCCCCCCCCCCC`, the ready biodegradability result was “readily biodegradable”.

In turn, `CCCCCC1CCCC1` registered a boiling point of 180 °C and a melting point of -83 °C.

Take `CCCCCCCCCCCCCCC(=O)O`: the boiling point came to 339 °C, the log10 vapour pressure (mmHg) is -6.36 and the melting point came out at 52.3 °C.

In the case of `CCCC(C)CC(C)CC` (centres undefined), the boiling point was found to be 159 °C.

`C#CCOc1cc(-n2nc3n(c2=O)CCCC3)c(Cl)cc1Cl` had a log10 vapour pressure (mmHg) of -11.1 and a melting point of 168 °C.

As to `CCc1cc(C(N)=S)ccn1`, the melting point was determined as 163 °C.

As for `CCCCCCCCCCCCCCCCCCOS(=O)(=O)[O][Na]`, the ready biodegradability entry is “readily biodegradable”.

On to `CCC1(c2ccc(N)cc2)CCC(=O)NC1=O` (centres undefined), for which the melting point was 150 °C.

`O=C(O)C1CSCN1` (centres undefined) showed a melting point of 196 °C.

Consider `O=C(Cl)c1ccc(C(=O)Cl)cc1`, for which the boiling point stood at 258 °C and the melting point was found to be 83.5 °C.

In the case of `COc1cc(OC)nc(Sc2cccc(Cl)c2C(=O)[O-])n1.[Na+]`, the melting point came out at 248 °C.

Staying with this series, now noted: fish.
`Clc1ccc(-c2c(Cl)ccc(Cl)c2Cl)cc1`: the log10 biotransformation half-life (days) came to 2.35.

In turn, `Sc1nc2ccccc2s1` came in with a log10 BCF of 0.9.

The compound `Nc1cccc2c1C(=O)c1ccccc1C2=O` had a log10 BCF of 1.98 and a log10 biotransformation half-life (days) of -0.59.

In turn, `Nc1nc[nH]n1` showed a log10 BCF of 0.49.

`C=C(C)[C@H]1Cc2c(ccc3c2O[C@@H]2COc4cc(OC)c(OC)cc4[C@@H]2C3=O)O1` gave a log10 BCF of 1.41 and a log10 biotransformation half-life (days) of -0.59.

On to `Cc1c(Cl)c(Cl)c(C)c(Cl)c1Cl`, for which the log10 BCF worked out at 3.62 and the log10 biotransformation half-life (days) was determined as 1.12.
